From the CheMixHub ionic liquid set

Test: xn = mol fraction of the nth substance listed
Settings: for electrical conductivity: 298 K

CC[n+]1ccn(C)c1.F[B-](F)(F)F + C1COCCO1
100 kPa
Settings | viscosity [mPa·s]
293.15 K, x2 = 0 | 50.5
298.15 K, x2 = 0.2149 | 26.8
303.15 K, x2 = 0 | 34.5
303.15 K, x2 = 0.1664 | 25.1
303.15 K, x2 = 0.2149 | 22.7
303.15 K, x2 = 0.5453 | 9.3
313.15 K, x2 = 0.2149 | 16.9
323.15 K, x2 = 0 | 18.6
323.15 K, x2 = 0.5077 | 6.59
323.15 K, x2 = 0.5453 | 5.93
333.15 K, x2 = 0.3591 | 7.8
333.15 K, x2 = 0.5077 | 5.42
353.15 K, x2 = 0.5453 | 3.52

CC[n+]1ccn(C)c1.F[B-](F)(F)F + CC1COC(=O)O1
101 kPa
Settings | electrical conductivity [S/m]
x2 = 0.16 | 1.5
x2 = 0.83 | 1.68
x2 = 0.89 | 1.46

CC[n+]1ccn(C)c1.O=S(=O)([N-]S(=O)(=O)C(F)(F)F)C(F)(F)F + CC1COC(=O)O1
101.3 kPa
Settings | viscosity [mPa·s]
288.15 K, x1 = 0.7977 | 34.2
293.15 K, x1 = 0.3007 | 8.42
293.15 K, x1 = 1 | 39.06
298.15 K, x1 = 0.2127 | 5.58
298.15 K, x1 = 0.7004 | 20.1
303.15 K, x1 = 0.1 | 3.358
303.15 K, x1 = 0.4227 | 8.98
303.15 K, x1 = 0.7601 | 18.97
308.15 K, x1 = 0.4227 | 7.89
308.15 K, x1 = 0.6015 | 12.59
308.15 K, x1 = 0.7601 | 16.83
308.15 K, x1 = 1 | 23.19
313.15 K, x1 = 0.7601 | 14.7
313.15 K, x1 = 0.8098 | 16.11
313.15 K, x1 = 1 | 19.94
318.15 K, x1 = 0.3007 | 4.614
318.15 K, x1 = 0.6015 | 9.46
318.15 K, x1 = 0.7004 | 11.6
318.15 K, x1 = 0.9533 | 16.99
323.15 K, x1 = 0.6015 | 8.33
328.15 K, x1 = 0.2127 | 3.014
328.15 K, x1 = 0.4227 | 5.07
328.15 K, x1 = 0.5146 | 6.11
328.15 K, x1 = 0.7601 | 9.85
328.15 K, x1 = 0.7977 | 10.52
333.15 K, x1 = 0.1 | 1.979
333.15 K, x1 = 0.3007 | 3.477
333.15 K, x1 = 0.658 | 7.31
333.15 K, x1 = 0.7004 | 7.92
338.15 K, x1 = 0.1 | 1.838
343.15 K, x1 = 0.5146 | 4.595
343.15 K, x1 = 0.7601 | 6.96
343.15 K, x1 = 0.7977 | 7.41
343.15 K, x1 = 0.8098 | 7.59
348.15 K, x1 = 0.1 | 1.599
348.15 K, x1 = 0.2127 | 2.203
348.15 K, x1 = 0.658 | 5.39

CC(=O)[O-].CCC[N+]1(C)CCCC1 + CC#N
101 kPa
Settings | electrical conductivity [S/m]
x2 = 0.75 | 3.18
x2 = 0.775 | 3.51
x2 = 0.799 | 3.72
x2 = 0.825 | 3.86
x2 = 0.849 | 3.9
x2 = 0.875 | 3.92
x2 = 0.9 | 3.85
x2 = 0.911 | 3.75
x2 = 0.921 | 3.63
x2 = 0.94 | 3.35

CC(O)C(=O)[O-].CCC[N+]1(C)CCCC1 + CC#N
101 kPa
Settings | electrical conductivity [S/m]
x2 = 0.724 | 2.67
x2 = 0.749 | 2.89
x2 = 0.801 | 3.19
x2 = 0.825 | 3.33
x2 = 0.849 | 3.54
x2 = 0.873 | 3.56
x2 = 0.898 | 3.5
x2 = 0.91 | 3.5
x2 = 0.921 | 3.37
x2 = 0.929 | 3.24

CC(O)C(=O)[O-].CCC[N+]1(C)CCCCC1 + CC#N
101 kPa
Settings | electrical conductivity [S/m]
x2 = 0.77 | 2.16
x2 = 0.823 | 2.56
x2 = 0.832 | 2.64
x2 = 0.838 | 2.76
x2 = 0.846 | 2.85
x2 = 0.851 | 2.85
x2 = 0.859 | 2.88
x2 = 0.863 | 2.92
x2 = 0.869 | 2.97
x2 = 0.872 | 2.98
x2 = 0.877 | 2.98
x2 = 0.881 | 3.01
x2 = 0.885 | 3.03
x2 = 0.888 | 3.06
x2 = 0.891 | 3.04
x2 = 0.893 | 3.06
x2 = 0.897 | 3.09
x2 = 0.9 | 3.09
x2 = 0.907 | 3.09
x2 = 0.909 | 3.09
x2 = 0.92 | 3.04
x2 = 0.933 | 2.92
x2 = 0.952 | 2.68

CCCCCC[P+](CCCC)(CCCC)CCCC.F[B-](F)(F)F + CC#N
viscosity [mPa·s], 100 kPa
Settings | x1 = 0.004011 | x1 = 0.008155 | x1 = 0.01203 | x1 = 0.01615 | x1 = 0.01996 | x1 = 0.02404 | x1 = 0.02792 | x1 = 0.03151 | x1 = 0.03559 | x1 = 0.03974
293.15 K | 0.374 | 0.398 | 0.419 | 0.446 | 0.47 | 0.499 | 0.526 | 0.554 | 0.585 | 0.621
298.15 K | 0.357 | 0.379 | 0.399 | 0.423 | 0.446 | 0.472 | 0.497 | 0.523 | 0.551 | 0.585
303.15 K | 0.341 | 0.361 | 0.38 | 0.403 | 0.423 | 0.448 | 0.47 | 0.495 | 0.521 | 0.552
308.15 K | 0.326 | 0.345 | 0.362 | 0.383 | 0.403 | 0.425 | 0.446 | 0.469 | 0.493 | 0.522
313.15 K | 0.313 | 0.331 | 0.347 | 0.366 | 0.384 | 0.406 | 0.425 | 0.446 | 0.468 | 0.495
318.15 K | 0.3 | 0.317 | 0.332 | 0.35 | 0.367 | 0.387 | 0.405 | 0.424 | 0.445 | 0.47

CC[n+]1ccn(C)c1.F[B-](F)(F)F + CC#N
Settings | viscosity [mPa·s]
293.15 K, 100 kPa, x2 = 0.1787 | 25.2
298.15 K, 100 kPa, x2 = 0.8301 | 1.14
303.15 K, 101 kPa, x1 = 0.0999 | 0.71
303.15 K, 101 kPa, x1 = 0.2 | 1.31
303.15 K, 101 kPa, x1 = 0.2977 | 2.18
303.15 K, 101 kPa, x1 = 0.3999 | 3.51
303.15 K, 101 kPa, x1 = 0.4999 | 5.29
303.15 K, 101 kPa, x1 = 0.5991 | 7.84
303.15 K, 101 kPa, x1 = 0.7013 | 11
303.15 K, 101 kPa, x1 = 0.8003 | 15.3
303.15 K, 101 kPa, x1 = 0.9009 | 21
303.15 K, 101 kPa, x1 = 1 | 28
313.15 K, 100 kPa, x2 = 0.2803 | 10.5
313.15 K, 100 kPa, x2 = 0.3682 | 7.5
313.15 K, 101 kPa, x1 = 0.0999 | 0.638
313.15 K, 101 kPa, x1 = 0.2 | 1.15
313.15 K, 101 kPa, x1 = 0.2977 | 1.89
313.15 K, 101 kPa, x1 = 0.3999 | 2.95
313.15 K, 101 kPa, x1 = 0.4999 | 4.34
313.15 K, 101 kPa, x1 = 0.5991 | 6.21
313.15 K, 101 kPa, x1 = 0.7013 | 8.64
313.15 K, 101 kPa, x1 = 0.8003 | 11.7
313.15 K, 101 kPa, x1 = 0.9009 | 15.6
313.15 K, 101 kPa, x1 = 1 | 20.4
323.15 K, 100 kPa, x2 = 0 | 18.6
323.15 K, 100 kPa, x2 = 0.2803 | 8.36
323.15 K, 100 kPa, x2 = 0.3682 | 6.1
323.15 K, 100 kPa, x2 = 0.7116 | 1.6
323.15 K, 101 kPa, x1 = 0.0999 | 0.575
323.15 K, 101 kPa, x1 = 0.2 | 1.02
323.15 K, 101 kPa, x1 = 0.2977 | 1.67
323.15 K, 101 kPa, x1 = 0.3999 | 2.52
323.15 K, 101 kPa, x1 = 0.4999 | 3.64
323.15 K, 101 kPa, x1 = 0.5991 | 5.11
323.15 K, 101 kPa, x1 = 0.7013 | 6.95
323.15 K, 101 kPa, x1 = 0.8003 | 9.17
323.15 K, 101 kPa, x1 = 0.9009 | 12
323.15 K, 101 kPa, x1 = 1 | 15.3
333.15 K, 100 kPa, x2 = 0.2803 | 6.82
333.15 K, 100 kPa, x2 = 0.7116 | 1.41
333.15 K, 101 kPa, x1 = 0.0999 | 0.522
333.15 K, 101 kPa, x1 = 0.2 | 0.917
333.15 K, 101 kPa, x1 = 0.2977 | 1.48
333.15 K, 101 kPa, x1 = 0.3999 | 2.2
333.15 K, 101 kPa, x1 = 0.4999 | 3.13
333.15 K, 101 kPa, x1 = 0.5991 | 4.34
333.15 K, 101 kPa, x1 = 0.7013 | 5.76
333.15 K, 101 kPa, x1 = 0.8003 | 7.47
333.15 K, 101 kPa, x1 = 0.9009 | 9.51
333.15 K, 101 kPa, x1 = 1 | 12.1
343.15 K, 100 kPa, x2 = 0.3682 | 4.28
343.15 K, 100 kPa, x2 = 0.7116 | 1.26
343.15 K, 100 kPa, x2 = 0.8301 | 0.719
